Patent US9879303B2, “Chromogenic glucuronidase substrates and uses” (Glycosynth Limited, priority 2013, dated 2018)
Structures can show the parent of a compound that is named as a salt.

Test system: 20 different microbial strains
Assay: specificity of action on 20 different microbial strains, Columbia agar
Format: cell-based
Conditions: 19 organisms other than E. coli NCTC 10418, FAC
Protocol: The specificity of action of both DHN-β-D-glucuronide (2) and of catechol-β-D-glucuronide (1), as well as their 6′-methyl esters (4 and 6), was first established using multi-point inoculation of 20 different microbial strains onto Columbia agar plates. The strains chosen represented species commonly encountered in diagnostic microbiology. The substrates were incorporated into the agar at a concentration of 300 mg/L with an iron salt, ferric ammonium citrate, (hereinafter known as FAC) at 500 mg/L. The plates were incubated for 18 h at 37° C. in air.
Of the 20 strains, only the β-D-glucuronidase-positive strain of E. coli, (E. coli NCTC 10418) was able to hydrolyse the substrates. This organism generated diffuse, purple-brown colonies with the catechol substrates and diffuse, maroon colonies with the DHN substrates. Essentially identical results were obtained if other iron salts (e.g. iron(II) gluconate, iron(II) acetate, iron(II) citrate, iron(II) acetylacetonate and iron(III) acetylacetonate) were substituted in place of FAC. The iron compound can be either iron(II) (i.e. ferrous) or iron(III) (i.e. ferric). Both types of compound work equally, and the coloured chelates were still formed when the plates were incubated under anaerobic conditions, which is another useful feature of the present invention. The substrates may also be autoclaved at 116° C. for 20 minutes with no decrease in sensitivity. It will be appreciated that the media and the reagents will all contain at least traces of iron compounds. […] In contrast, supplementing the growth media with compounds of other metals gave either no coloured endpoint or an extremely poor one to visualise. […] Therefore the latter substrates were preferred for more extensive evaluation. […] For convenience, further evaluation of catechol-β-D-glucuronide and DHN-β-D-glucuronide was conducted with the CHA salt forms only (1 and 2b). In the present invention the counter ion of the glucuronide is not considered to be of special significance. For acidic enzyme substrates (including glucuronides), a variety of different counter ions, both inorganic and organic, are well known in the prior art.

SMILES | result with the other 19 organisms
O=C(O)C1OC(Oc2cc3ccccc3cc2O)C(O)C(O)C1O [Compound 2b, DHN-β-D-Glucuronide CHA Salt] | uniformly negative
O=C(O)C1OC(Oc2ccccc2O)C(O)C(O)C1O [Compound 1, Catechol β-D-Glucuronide CHA Salt] | uniformly negative
